Earlier results as cited in publication PMC9737391, “Trifluoromethylcinnamanilide Michael Acceptors for Treatment of Resistant Bacterial Infections” (International Journal of Molecular Sciences, 2022).
pIC50: −log10 of the molar value. Like-named read-outs stand apart in the source and are kept apart here.

Legend:
[1] = test system: S. aureus ATCC 29213; details: MTT, cited from earlier work
[2] = test system: M. tuberculosis H37Ra; design: method as in ref 26 = [26]; PMID 30087309; doi:10.3390/ijms19082318; 26. Pospisilova S. Kos J. Michnova H. Kapustikova I. Strharsky T. Oravec M. Moricz A.M. Bakonyi J. Kauerova T. Kollar P. Synthesis and spectrum of biological activities of novel N -arylcinnamamides In; details: average over the named compounds; cited from earlier work
[3] = test system: M. tuberculosis; design: method as in ref 26 = [26]; PMID 30087309; doi:10.3390/ijms19082318; 26. Pospisilova S. Kos J. Michnova H. Kapustikova I. Strharsky T. Oravec M. Moricz A.M. Bakonyi J. Kauerova T. Kollar P. Synthesis and spectrum of biological activities of novel N -arylcinnamamides In; details: MTT, at MIC values; cited from earlier work
[4] = test system: Plasmodium falciparum 3D7; design: method as in PMID 36431900; details: read-out: IC50 against Plasmodium falciparum 3D7; cited from earlier work

O=C(/C=C/c1ccccc1)Nc1ccc(C(F)(F)F)c(F)c1 [3c]
inhibition of S. aureus respiration ([1]; at MIC value): 86%

O=C(/C=C/c1ccccc1)Nc1cc(Cl)cc(Cl)c1 [3d]
average MIC against M. tuberculosis H37Ra [2]: ~ 24 µM
inhibition of M. tuberculosis respiration [3]: 77%

O=C(/C=C/c1ccccc1)Nc1ccc(Br)cc1Cl [3f]
pIC50 [4]: 6.24

O=C(/C=C/c1ccc(Cl)c(Cl)c1)Nc1cc(C(F)(F)F)cc(C(F)(F)F)c1 [4f]
inhibition of S. aureus respiration ([1]; at 0.25× MIC): 96%
